The source of these data is patent US20060029548A1, “Methods of diagnosing, monitoring and treating pulmonary diseases” (priority 2004, published 2006).

The test system of experiment [1] is pulmonary vagal afferent C fibers (P2X3/P2X2/3-receptors). The experiment can be described thus: Perfused nerve-lung preparation: action potentials in C fibers. It is filed as cell-based, guinea pig. As to the method:
(§1) The method for the extracellular recording of the activity of vagal sensory neurons projecting to guinea pig lungs -has been described in detail previously in Canning et al. [(2004) J. Physiol. 557:543-545], which is incorporated herein by reference in its entirety. Briefly, male Hartley guinea pigs (100-200 g) were killed with CO2 inhalation and exsanguination. The blood from the pulmonary circulation was washed out by in situ perfusion with Krebs' bicarbonate solution (KBS; comprised of 118 mM NaCl, 5.4 mM KCl, 1.0 mM NaH2PO4, 1.2 mM MgSO4, 1.9 mM CaCl2, 25.0 mM NaHCO3, 11.1 mM dextrose, and gassed with 95% O2-5% CO2 at pH7.4). The KBS contained 3 uM indomethacin to reduce the indirect influence of tissue prostanoids on sensory fiber activity. Trachea and right lungs, having intact right-side extrinsic vagal innervation by the inclusion, e.g., of right jugular and nodose ganglia, were dissected from the exsanguinated guinea pigs and placed in a two-compartment tissue bath. The right nodose and jugular ganglia, along with the rostral vagus nerve, were placed into one compartment of the tissue bath whereas the lung and trachea were placed into the second compartment of the tissue bath. The two compartments were separately superfused with KBS (6 ml min^−1, at 37° C.).
(§2) The pulmonary artery and trachea were cannulated with polyethylene (PE) tubing and continuously perfused with KBS (4 ml min^−1 and 2 ml min^−1, respectively). […]
(§3) Once a mechanosensitive receptive field was identified, a brief [<1 millisecond (ms)] electrical stimulus was delivered by a small concentric electrode that was positioned over a discrete region of the mechanosensitive receptive field to determine the conduction velocity of the fiber. […] Conduction velocity was calculated by dividing the distance along the nerve pathway by the time between the shock artifact and the action potential evoked by electrical stimulation of the mechanosensitive receptive field. […]

Experiment [2] deals with pulmonary vagal afferent A fibers (P2X3/P2X2/3-receptors). The experiment can be described thus: Perfused nerve-lung preparation: action potentials in A fibers. It counts as cell-based, guinea pig. As to the method:
as §1, §2, §3

The test system of experiment [3] is vagal action potentials elicited by ATP. Particulars: dog; cited from earlier work.
The subject of experiment [4] is vagal C fiber. The experiment can be described thus: Vagal activation experiments in dogs: action potentials in vagal C fibers. It counts as in vivo. Particulars: anesthetized dog, rapid bolus; simultaneous recording with RAR-containing fiber. As to the method: (§4) The experiments described in Example 5 were performed essentially as described in Pelleg et al. [(1996) J. Physiol. 490(1):265-275] and U.S. Pat. No. 5,874,420, both of which are incorporated herein by reference in their entirety. In brief, they were performed on anesthetized (sodium pentobarbitone, 30 mg kg^−1 plus 3 mg kg^−1 h^−1, intravenous) dogs artificially ventilated with room air using a respirator. Arterial blood pH, PO2, PCO2, body temperature were maintained as described in U.S. Pat. No. 5,874,420. A peripheral vein was cannulated for the administration of physiological saline solution and maintenance doses of anesthetic. Catheters were introduced via the femoral vein and left atrial appendage and positioned in the right atrium and left atrium for the administration of test solutions. The chest was opened by a longitudinal sternotomy. The right cervical vagosympathetic trunk was exposed by a midcervical longitudinal section of the skin and careful dissection of neck muscles and connective tissues. The edges of the cut skin were elevated and secured to create a trough which was filled with warm (about 37° C.) mineral oil. A section of the vagosympathetic trunk was placed on a small plate of black Perspex™ and fine branches were separated from the main bundle by careful dissection using microsurgical tools and a dissecting microscope (Model F212, Jenopik Jena, GmbH, Germany).
Extracellular neural action potentials were recorded using a custom-made bipolar electrode that contained two platinum-iridium wires (1.25 cm×0.0125 cm) connected to a high-impedence first-stage differential amplifier (model AC8331, CW, Inc., Ardmore, Pa.) via a shielded cable. The output of the first-stage amplifier was fed into a second-stage differential amplifier (model BMA-831/C, CWE, Inc.). Isolated fibers were laid on the pair of platinum-iridium wires. Vagal C fibers with chemosensitive endings have a sparse irregular discharge which is not associated with cardiac or respiratory cycles. […]
ATP (3 umole kg^−1) and capsaicin (10 ug kg^−1) were administered as a rapid bolus into the right atrium (5 ml test solution+5 ml physiological saline flush). α,βmATP and β,γmATP were given as one low dose only (0.75 umol kg^−1) to avoid systemic side effects. […] To exclude involvement of baroreceptors in the recorded neural activity, the latter was monitored before and after a bolus of nitroglycerine (1 mg; intravenous). […]

For experiment [5], the system named is pulmonary RAR-containing afferent nerve fiber. The experiment can be described thus: Vagal activation experiments in dogs: action potentials in RAR-containing fibers. It counts as in vivo. Particulars: anesthetized dog. The protocol: as §4
Extracellular neural action potentials were recorded using a custom-made bipolar electrode that contained two platinum-iridium wires (1.25 cm×0.0125 cm) connected to a high-impedence first-stage differential amplifier (model AC8331, CW, Inc., Ardmore, Pa.) via a shielded cable. The output of the first-stage amplifier was fed into a second-stage differential amplifier (model BMA-831/C, CWE, Inc.). Isolated fibers were laid on the pair of platinum-iridium wires. Vagal C fibers with chemosensitive endings have a sparse irregular discharge which is not associated with cardiac or respiratory cycles. Confirmation of fiber type was obtained by: first monitoring the response to capsaicin (10 microg kg^−1, intra-right atrial bolus); second, monitoring the response to mechanical stimulation of the lungs using gentle probing with forceps as well as inflation of the lungs to 2-3 times the tidal volume; and third, determining the speed of conduction using a stimulating electrode positioned distal to the initial recording site. Nerve fibers with RAR on their pulmonary endings, spontaneously fire a brief (i.e., short lasting) volley of action potentials associated with peak tracheal pressure during each respiratory cycle.
[…] Volume controls consisted of either 5 ml+5 ml or 1 ml+3 ml physiological saline. All injections were performed in the same mode by the same person. To exclude involvement of baroreceptors in the recorded neural activity, the latter was monitored before and after a bolus of nitroglycerine (1 mg; intravenous).
The procedure described in Example 1 was used to measure action potentials in dog pulmonary fibers with RAR on their terminals following administration of various agents. RAR activation generated a brief volley of action potentials associated with each respiratory cycle that was seen before as well as after administration of ATP (FIG. 7). […] Thus ATP modified the activity of the RAR-containing fiber manifested in their transient loss of the rapid adaptability characteristic.

The structures appear in SMILES notation.

For `O=C(O)c1cc(C(=O)O)c(C(=O)N(Cc2cccc(Oc3ccccc3)c2)[C@H]2CCCc3ccccc32)cc1C(=O)O` [A-317491, 5-({(3-phenoxybenzyl)[(1S)-1,2,3,4-tetrahydro-1-napththalenyl]amino}carbonyl)-1,2,4-benzenetricarboxylic acid], the “inhibition of the action of α,βmATP” value is reported as “no inhibitory effect” in experiment [1] (C fibers, antagonist 1 uM, 30 min, α,βmATP 10 uM 1 ml bolus) and 59±12% in experiment [2] (A fibers, antagonist 1 uM, 30 min, α,βmATP 10 uM 1 ml bolus). Besides, the “reduction of response to α,βmATP” value came to 62±5% in experiment [1] (C fibers, antagonist 10 uM, 30 min, α,βmATP 10 uM 1 ml bolus) and 88±5% in experiment [2] (A fibers, antagonist 10 uM, 30 min, α,βmATP 10 uM 1 ml bolus).

As for `Cc1nc(N=Nc2ccc(S(=O)(=O)O)cc2S(=O)(=O)O)c(COP(=O)(O)O)c(C=O)c1O` [PPADS, pyridoxalphosphate-6-azophenyl-2′4′-disulphonic acid], in experiment [3], the “effect on number of vagal action potentials elicited by ATP” value is “reduced the number of vagal action potentials”.

On to `Nc1ncnc2c1ncn2[C@@H]1O[C@H](COP(=O)(O)CP(=O)(O)OP(=O)(O)O)[C@@H](O)[C@H]1O` [α,βmATP, α,β-methylene ATP], for which the “frequency of the generated action potentials” value in experiment [1] (C fibers (n=4), 10 μM, 1 mL bolus, mean±SD) is 146±29 discharge/sec; in experiment [2] (A fibers (n=7), 10 μM, 1 mL bolus, mean±SD) it was 1543±285 discharge/sec. The “effect on action potentials of C fibers” value in experiment [4] is listed as “acted similarly to ATP”. Moreover, the “potency relative to ATP” value in experiment [5] (FIG. 9) is “more potent than ATP”. Also, the “effect on action potentials of RAR-containing fibers” value in experiment [5] (rapid bolus, ATP 6 μmol/kg, capsaicin 10 ug kg−1, analogs 0.75 umol kg−1) is reported as “acted similarly to ATP”.
